Test results: article PMC6272674, “Selected Compounds Structurally Related to Acyclic Sesquiterpenoids and Their Antibacterial and Cytotoxic Activity” (Molecules, 2015)
Values after ≈ are worked out from the molar mass of the structure shown.

Experiments:
[1] = test system: Staphylococcus aureus ATCC 43300; assay: Micro-dilution broth MIC, Staphylococcus aureus; type: cell-based; conditions: ATCC43300, 24 h, 37 °C, read-out: Minimum Inhibitory Concentrations MIC
Procedure: (§1) The standard strains, Gram-positive: Staphylococcus aureus ATCC […], Enterococcus faecalis Van B ATCC 51299 and Enterococcus faecium VA sensitive ATCC 35667, and Gram-negative: Escherichia coli ATCC 25922, Klebsiella pneumoniae ATCC 700603 and Acinetobacter baumannii ATCC 19606, came from a collection of the Environmental Biology Department, Medical University of Łódź. The standard strains were cultivated in Columbia Agar Medium and incubated at 37 °C for 24 h in aerobic conditions.
(§2) The antibacterial activity of the racemates and E/Z-mixtures was investigated using the micro‑dilution broth method. The compounds were diluted in ethanol. This stock solution was mixed with 100 µL of Mueller-Hinton broth to obtain concentrations from 10 µg/mL to 80 µg/mL. The mixtures were then transferred to 96-well microtiter plates. The microbial suspension was standardised to a cell density of 1.5 × 10^8 CFU, which was equal to an optical density of 0.5 on the Mc Farland scale by a bio-Merieux densitometer; one well was filled with broth only to act as a control for strain growth.

[2] = test system: Enterococcus faecalis ATCC 51299; assay: Micro-dilution broth MIC, Enterococcus faecalis; type: cell-based; conditions: ATCC51299, 24 h, 37 °C, read-out: Minimum Inhibitory Concentrations MIC
Procedure: as §1, §2

[3] = test system: Enterococcus faecium ATCC 35667; assay: Micro-dilution broth MIC, Enterococcus faecium; type: cell-based; conditions: ATCC35667, 24 h, 37 °C, read-out: Minimum Inhibitory Concentrations MIC
Procedure: as §1, §2

[4] = test system: Escherichia coli ATCC 25922; assay: Micro-dilution broth MIC, Escherichia coli; type: cell-based; conditions: ATCC25922, 24 h, 37 °C, read-out: Minimum Inhibitory Concentrations MIC
Procedure: as §1, §2

[5] = test system: Klebsiella pneumoniae ATCC 700603; assay: Micro-dilution broth MIC, Klebsiella pneumoniae; type: cell-based; conditions: ATCC700603, 24 h, 37 °C, read-out: Minimum Inhibitory Concentrations MIC
Procedure: as §1, §2

[6] = test system: Acinetobacter baumannii ATCC 19606; assay: Micro-dilution broth MIC, Acinetobacter baumannii; type: cell-based; conditions: ATCC19606, 24 h, 37 °C, read-out: Minimum Inhibitory Concentrations MIC
Procedure: as §1, §2

[7] = MTT viability, MEWO; type: cell-based, human; conditions: human, MEWO malignant melanoma cells, 1000 µM (IC50 exceeded 1000 µM), read-out: viability ± standard deviation at 1000 µM
Procedure: (§3) Cell lines and in vitro culture conditions: The human promyelocytic leukaemia cell line HL-60 was obtained from the Centre of Molecular and Macromolecular Biology in Łódź, Poland and was cultured in RPMI 1640 medium with 20% heat-inactivated fetal bovine serum (FBS). To reduce spontaneous differentiation, the cells were never allowed to exceed a concentration of 1.0 × 10^6 cells/mL. The human keratinocyte cell line HaCaT was obtained from Cell Lines Service, Germany (CLS) and cultured in DMEM medium with 10% FBS. Human colorectal adenocarcinoma HT29 and normal epithelial IEC-6 cell lines (from ATCC) were cultured in DMEM medium with 10% FBS. The human skin melanoma cell line MEWO (from CLS) was cultured in DMEM:F12 supplemented with 2 mM L-glutamine and 10% FBS. Human fibroblasts from gingiva isolated from original tissue, HFIB-G, (from Provitro) were cultured in Quantum 333 (from Immunique). The media were supplemented with 100 U/mL penicillin and 100 µg/mL streptomycin; all media components were obtained from Life Technologies. The adherent cell lines used in the studies were seeded on microplates before they exceeded 80% of confluence. Cells were cultured at 37 °C in 5% CO2 air atmosphere/95% air atmosphere.
(§4) Cytotoxic activity: The cells (the density for HL-60 was 0.5 × 10^4 cells/100 µL, otherwise it was 1 × 10^4 cells/100 µL) were plated into each well of 96-well microtiter plates and, after their attachment to the plate surface, treated with 10 µL of the indicated concentrations of compounds for 24 h. Viability was determined by MTT assay following the treatment. MTT (3-[4.5-dimethylthiazol-2-yl]-2.5-diphenyltetrazolium bromide; Sigma, St. Louis, MO, USA) solution was added to each well and incubated for another 4 h. The resulting MTT-formazan product was dissolved by the addition of lysis buffer (20% SDS and 50% DMF). The amount of formazan was determined by measuring absorbance at 570 nm with a Synergy 2 microplate reader (BioTek, Winooski, VT, USA) operated by the Gen5 program. The experiments were conducted three times with five replications. The results are expressed as an optical density ratio of the treatment to control. All data are presented as means ± SD.

[8] = MTT viability, HT29; type: cell-based, human; conditions: human, HT29 colorectal adenocarcinoma cells, 1000 µM (IC50 exceeded 1000 µM), read-out: viability ± standard deviation at 1000 µM
Procedure: as §3, §4

[9] = test system: Promyelocytic Leukaemia HL-60; assay: MTT viability, HL-60; type: cell-based, human; conditions: Homo sapiens, HL-60, 24 h, HL-60, MTT, range 10–1000 µM, read-out: half maximal inhibitory concentration (IC50), interpolated
Procedure: as §3, §4

[10] = MTT viability, HFIG; type: cell-based, human; conditions: human, HFIG (HFIB-G) gingival fibroblasts, 1000 µM (IC50 exceeded 1000 µM), read-out: viability ± standard deviation at 1000 µM
Procedure: as §3, §4

[11] = MTT viability, HaCaT; type: cell-based, human; conditions: human, HaCaT keratinocytes, 1000 µM (IC50 exceeded 1000 µM), read-out: viability ± standard deviation at 1000 µM
Procedure: as §3, §4

[12] = MTT viability, IEC6; type: cell-based; conditions: rat, IEC-6 small intestine epithelial cells, 1000 µM (IC50 exceeded 1000 µM), read-out: viability ± standard deviation at 1000 µM
Procedure: as §3, §4

[13] = test system: Malignant Melanoma MEWO; assay: MTT viability, MEWO; type: cell-based, human; conditions: Homo sapiens, 24 h, range 10–1000 µM, read-out: half maximal inhibitory concentration (IC50), interpolated
Procedure: as §3, §4

[14] = test system: Fibroblasts HFIG; assay: MTT viability, HFIG; type: cell-based, human; conditions: Homo sapiens, Fibroblast, 24 h, range 10–1000 µM, read-out: half maximal inhibitory concentration (IC50), interpolated
Procedure: as §3, §4

[15] = test system: Keratinocytes HaCaT; assay: MTT viability, HaCaT; type: cell-based, human; conditions: Homo sapiens, 24 h, range 10–1000 µM, read-out: half maximal inhibitory concentration (IC50), interpolated
Procedure: as §3, §4

CC(=O)OCC=C(C)C(C)CC(C)CCC=C(C)C (stereo not drawn) [Compound 35, 3,4,6,10-Tetramethylundec-2,9-dien-1-yl acetate]
MIC [1]: 34 mg/L | MIC [2]: 16 mg/L | MIC [3]: 14 mg/L | MIC [4]: 16 mg/L | MIC [5]: 18 mg/L | MIC [6]: 12 mg/L | viability at 24 h, 1000 µM [7]: 112% | viability at 24 h, 1000 µM [8]: 83% | IC50 [9]: 343 µM | viability at 24 h, 1000 µM [10]: 87% | viability at 24 h, 1000 µM [11]: 102% | viability at 24 h, 1000 µM [12]: 71%

CC(C)=CCCC(C)C(C)=CCCC(C)=CCO (stereo not drawn) [Compound 24, 3,7,8,12-Tetramethyltrideca-2,6,11-trien-1-ol]
MIC [1]: 22 mg/L (≈ 87.9 µM) | MIC [2]: 18 mg/L (≈ 71.9 µM) | MIC [3]: 32 mg/L (≈ 128 µM) | MIC [4]: 52 mg/L (≈ 208 µM) | MIC [5]: 44 mg/L (≈ 176 µM) | MIC [6]: 40 mg/L (≈ 160 µM) | IC50 [13]: 512 µM | viability at 24 h, 1000 µM [8]: 78% | IC50 [9]: 100 µM | IC50 [14]: 390 µM | IC50 [15]: 686 µM | viability at 24 h, 1000 µM [12]: 85%

CC(=O)OC/C=C(\C)CCC=CC(C)CCC=C(C)C (stereo not drawn) [Compound 31, (E)-3,8,12-Trimethyltrideca-2,6,11-trien-1-yl acetate]
MIC [1]: 24 mg/L | MIC [2]: 20 mg/L | MIC [3]: 20 mg/L | MIC [4]: 26 mg/L | MIC [5]: 22 mg/L | MIC [6]: 18 mg/L | IC50 [13]: 930 µM | viability at 24 h, 1000 µM [8]: 107% | IC50 [9]: 350 µM | IC50 [14]: 850 µM | viability at 24 h, 1000 µM [11]: 98% | viability at 24 h, 1000 µM [12]: 94%

CC(=O)OCC=C(C)CCC(C)CCC=C(C)C (stereo not drawn) [Compound 34, 3,6,10-Trimethylundeca-2,9-dien-1-yl acetate]
MIC [1]: 32 mg/L | MIC [2]: 20 mg/L | MIC [3]: 18 mg/L | MIC [4]: 18 mg/L | MIC [5]: 20 mg/L | MIC [6]: 18 mg/L | viability at 24 h, 1000 µM [7]: 98% | viability at 24 h, 1000 µM [8]: 98% | IC50 [9]: 312 µM | viability at 24 h, 1000 µM [10]: 99% | viability at 24 h, 1000 µM [11]: 110% | viability at 24 h, 1000 µM [12]: 79%

CC(=O)OCC=C(C)CCC=C(C)C(C)CCC=C(C)C (stereo not drawn) [Compound 30, 3,7,8,12-Tetramethyltrideca-2,6,11-trien-1-yl acetate]
MIC [1]: 30 mg/L | MIC [2]: 24 mg/L | MIC [3]: 18 mg/L | MIC [4]: 30 mg/L | MIC [5]: 24 mg/L | MIC [6]: 24 mg/L | IC50 [13]: 850 µM | viability at 24 h, 1000 µM [8]: 96% | IC50 [9]: 289 µM | viability at 24 h, 1000 µM [10]: 105% | IC50 [15]: 900 µM | viability at 24 h, 1000 µM [12]: 86%

CC(=O)OCC=C(C)CCC=C(C)CCC=C(C)C [Farnesyl acetate (5), farnesyl acetate, reference compound]
MIC [1]: 28 mg/L | MIC [2]: 20 mg/L | MIC [3]: 20 mg/L | MIC [4]: 28 mg/L | MIC [5]: 22 mg/L | MIC [6]: 22 mg/L | IC50 [13]: 734 µM | viability at 24 h, 1000 µM [8]: 105% | IC50 [9]: 121 µM | viability at 24 h, 1000 µM [10]: 98% | viability at 24 h, 1000 µM [11]: 102% | viability at 24 h, 1000 µM [12]: 78%

CNC(C)C1CCC(N)C(OC2C(N)CC(N)C(OC3OCC(C)(O)C(NC)C3O)C2O)O1 (stereo not drawn) [Gentamicin, reference compound]
MIC [1]: 16 mg/L (≈ 33.5 µM) | MIC [2]: > 64 mg/L | MIC [3]: 32 mg/L (≈ 67 µM) | MIC [4]: 4 mg/L (≈ 8.38 µM) | MIC [5]: 32 mg/L (≈ 67 µM) | MIC [6]: 32 mg/L (≈ 67 µM)
